Among the test systems are OVCAR-4 ovarian; HCT-116 colon; HOP-62 NSCLC; PC-3 prostate; M14 melanoma; NCI-H23 lung; COLO 205 colon; SN12C renal; A498 renal; HCT-15 colon.
Holding throughout (assay): NCI tumour cell line growth inhibition, 48 h

Structures are written as SMILES.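 Each compound was tested at five concentrations against cells in 96-well plates for 48 hours. At the TGI there is no net growth.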

In the case of `N=C1N(S(=O)(=O)c2ccccc2)[C@@H](Cc2ccccc2)[C@H](c2ccccc2)C1(c1ccccc1)c1ccccc1`, the TGI in the assay with OVCAR-4 ovarian, in the assay with HCT-116 colon, in the assay with HOP-62 NSCLC, in the assay with PC-3 prostate, in the assay with M14 melanoma and in the assay on NCI-H23 lung was > 100 µM each time. The TGI in the assay with COLO 205 colon, in the assay with SN12C renal, in the assay with A498 renal and in the assay with HCT-15 colon was > 100 µM throughout.

As for `COc1cc2c(cc1OCCCC(=O)Nc1cc(C(=O)Nc3cc(C(=O)Nc4cc(C(=O)NCCCN(C)C)n(C)n4)n(C)n3)n(C)n1)N=CC1CCCN1C2=O` (stereo not given), the TGI in the assay on OVCAR-4 ovarian was 35.7 µM; with HCT-116 colon, > 100 µM; with HOP-62 NSCLC it was > 100 µM; with PC-3 prostate, > 100 µM; with M14 melanoma it was 95.2 µM; in the assay with NCI-H23 lung, 66.5 µM. The TGI was > 100 µM with COLO 205 colon, 42.3 µM in the assay on SN12C renal, 42.8 µM in the assay on A498 renal and > 100 µM with HCT-15 colon.

As to `c1ccc(CCNCc2ccco2)nc1`, the TGI in the assay with OVCAR-4 ovarian, in the assay on HCT-116 colon, in the assay with HOP-62 NSCLC, in the assay on PC-3 prostate, in the assay with M14 melanoma and in the assay with NCI-H23 lung was > 100 µM throughout. Also, the TGI with COLO 205 colon, in the assay on SN12C renal, in the assay with A498 renal and with HCT-15 colon was > 100 µM throughout.

Consider `Cc1ccncc1.F[B-](F)(F)F.[Pt+2].c1ccc(-c2cccc(-c3ccccn3)n2)nc1`, for which the TGI is > 100 µM with OVCAR-4 ovarian; > 100 µM in the assay on HCT-116 colon; > 55.2 µM in the assay on HOP-62 NSCLC; > 100 µM with PC-3 prostate; 13.5 µM with M14 melanoma; > 88 µM with NCI-H23 lung. Further, the TGI in the assay with COLO 205 colon is 20.8 µM; in the assay on SN12C renal, > 100 µM; in the assay with A498 renal it was 45.1 µM; with HCT-15 colon, 38.1 µM.

For `O=C1C=CC(=O)C(CNc2ccc(C(=O)OC34CC5CC(CC(C5)C3)C4)cc2)=C1`, the TGI in the assay with OVCAR-4 ovarian was found to be 12 µM; in the assay on HCT-116 colon it was 22.5 µM; in the assay on HOP-62 NSCLC, 17.1 µM; with PC-3 prostate, 22 µM; in the assay with M14 melanoma, 31.1 µM; in the assay with NCI-H23 lung, 25.4 µM. Moreover, the TGI worked out at 6.81 µM with COLO 205 colon, 17.8 µM in the assay on SN12C renal, 28 µM with A498 renal and 12.3 µM with HCT-15 colon.

For the origin of these results see PubChem BioAssay (NCI).
